Data on one compound can be found in publication PMC10850501 (Nature Communications, 2024).

SMILES strings stand for the structures. Entries after “also recorded” stand apart in the source; their conditions may differ. Where two headings read alike, the source gives them in different places. Peptide text beside a SMILES is read from it.

A short description of one data set: Cytocompatibility (CCK8). Type of data set: cell-based, human. The note with it: human, A549 cells, read-out: cytocompatibility, normalized to serum free media; for viability at 6 h, 10 µM: 0.01 mM peptide; for viability at 6 h, 100 µM: 0.1 mM peptide; for viability at 6 h, 1000 µM: 1 mM peptide. The protocol: (§1) Cytocompatibility of the peptides was evaluated at 1, 0.1, and 0.01 mM with A549 cells (ATCC CCL-185) cultured in complete media consisting of 90% F-12K and 10% FBS. The A549 cells were utilized after their first passage and seeded at 10,000 cells/well in a 96-well plate for 24 hours. The conditions were prepared in serum-free A549 media and introduced into the wells for 6 hours, after which the condition media were aspirated, the wells were washed once with PBS, and 10 µL of CCK8 was added to 100 µL of PBS[32]. The plate was incubated for 1 hour and read on a Tecan M200 Infinite plate reader at an absorbance of 450 nm with a reference wavelength of 650 nm. The results were analyzed and normalized to the serum-free media control[28],[32],[76].

Another data set deals with A549 cells. Description: Cytocompatibility (CCK8). Type of data set: cell-based, human. The note with it: human alveolar epithelial A549 cells; 0.01-1 mM. The protocol: as §1
The nature of data set [1]: Daily repeat IV dosing, 10 days (chronic PK/safety). The format is in vivo, rat (female Wistar). The protocol:
(§2) Female Wistar rats (225–250 g, 8–12 weeks old) were observed and acclimatized for 2 weeks prior to running the studies. They were housed in a controlled environment with temperature at […] and 40–70% humidity. They were kept in an alternating 12-hour light/dark cycle, and food, and water was provided as pellets ad libitum. Female Wistar Rats were used for the pharmacokinetics and the drug clearance analysis from the blood. The two hydrogels (ESBP2 and ESBP3) at 10 mg/ml concentration were injected into the rats via the lateral tail vein. For subcutaneous implants, the substance was injected between the shoulder blades and above the lumbar vertebrae, 200 μL each, using a 25-gauge needle. The hydrogel bolus was prepared with 0.9% saline and was injected within 1–2 minutes. The volume injected was approximately 1% of the total body weight of the rat, which was calculated prior to the dosing. The initial blood draw was performed for baseline, and the subsequent blood collection was performed from the lateral vein using 25 g butterfly needles.
Female Wistar rats (225–250 g, 8–12 weeks old) were weighed and repeatedly dosed (1% by weight) IV with ESBP2 or ESBP3 daily at 10 mg/mL (~3 mM). Rat blood samples were collected daily prior to injection via tail vein. Post 10 days of treatment, animals were allowed to recover for 10 days and then sacrificed. Plasma was stored and analyzed as above. The body weight was recorded every day prior to the blood collection.

Data set [2] is described as follows: Subcutaneous bolus biocompatibility. The format is in vivo, rat (female Wistar). The protocol: The peptide hydrogel was prepared at 10 mg/mL in sterile saline and aspirated in sterile 1 mL syringes, with careful attention to avoid air bubbles. Female Wistar rats (225–250 g, 8–12 weeks old) were used for dorsal subcutaneous implantation. The rats were anesthetized using 2.5% isoflurane and […], after which the back of the rat’s hair was shaved and sterilized with 3 alternating applications of isopropanol and betadine. 200 µL boluses of the peptide hydrogel were injected with a 25 G needle at n = 4 for a time point of 7 days. After the time point, the animals were sacrificed, and the implant regions were collected and fixed overnight in 10% buffered formalin. The Rutgers Cancer Institute of New Jersey histology core processed the paraffin-embedded samples for histological evaluation after staining with hematoxylin and eosin and Masson’s Trichrome. Samples were also fixed in glutaraldehyde and formaldehyde, processed to eponate blocks, and sectioned with an ultramicrotome for electron microscopy imaging (above)[30],[76],[87].
as §2

Data set [3] in a line: Intranasal repeat dose tolerability. The format is in vivo, mouse (female C57BL/6). As to conditions: 25µL / nostril x 2 daily for 10 days in mice; histopathology H&E, MT. The protocol: Female C57BL/6 mice (15–20 g, 8–12 weeks old) were used for intranasal dosing of the peptide. As mentioned previously, 25 µl of hydrogels were injected into each of the nasal cavities twice daily at an interval of 8 hours for 10 days consecutively. The organs were harvested at the final time point, and sectioning was performed for histological evaluation. The plasma was also collected for quantifying peptide clearance in the bloodstream of the animal model.

Another data set deals with SARS-CoV-2 Spike-RBD (Severe acute respiratory syndrome coronavirus 2, UniProt P0DTC2). Type of data set: binding.
The nature of data set [4]: Ultracentrifugation pellet / solid-state NMR of assemblies. Type of data set: physicochemical. The note with it: 10 mg/mL, 150,000 RCF, 30 minutes, 4 °C. The protocol:
To experimentally validate E1:ESBP3 peptide mixtures, solid-state NMR experiments were pursued. ^13C solid-state NMR measurements were conducted using cross-polarization magic angle spinning (^1H-^13C CPMAS) to evaluate sample structural order and structural differences between samples. The peptides were not isotopically enriched, so the ^13C signal was from the 1% natural abundance for ^13C.
After peptide dissolution at 10 mg/mL, the samples were concentrated by ultracentrifugation for 30 minutes in Bruker 3.22 mm NMR rotors at 4 °C and 150,000 RCF in Ultra-clear tubes of SW-41 Ti swinging bucket rotor fitted onto a Beckman Optima XPN-100 centrifuge. A 11.75 T magnet Bruker Avance III HD 500 spectrometer (500 MHz, ^1H NMR Larmor frequency) equipped with a room temperature 3.2 mm Bruker Low-E ^1H/^13C/^15N NMR probe was used for measurements. ^13C chemical shift referencing was conducted using adamantane referenced to tetramethylsilane. 1D ^13C cross-polarization magic angle spinning (CPMAS) spectra were collected using the standard Bruker cp pulse sequence. A 10 kHz magic angle spinning speed was used for all samples. The channels frequency for the optimization of the Hartmann-Hahn condition for ^1H and ^13C are 500.133 MHz and 125.771 MHz, respectively. A recycle delay time of 4 seconds (d1) and dwell time of 5 μs (DW) were used. Acquisition time was set to 10.24 ms. […]

With `CC[C@H](C)[C@H](NC(=O)[C@H](Cc1ccc(O)cc1)NC(=O)[C@@H](NC(=O)[C@H](CCCCN)NC(=O)[C@H](Cc1ccc(O)cc1)NC(=O)[C@H](CCC(N)=O)NC(=O)CNC(=O)[C@H](CCC(=O)O)NC(=O)[C@H](CC(C)C)NC(=O)[C@H](CO)NC(=O)[C@H](CC(C)C)NC(=O)[C@H](CO)NC(=O)[C@H](CC(C)C)NC(=O)[C@H](CO)NC(=O)[C@H](CC(C)C)NC(=O)[C@H](CO)NC(=O)[C@H](CC(C)C)NC(=O)[C@H](CO)NC(=O)[C@H](CC(C)C)NC(=O)[C@H](CO)NC(=O)[C@H](CCC(=O)O)NC(C)=O)[C@@H](C)O)C(=O)N[C@@H](CC(=O)O)C(=O)N[C@@H](CCCCN)C(=O)N[C@@H](CC(N)=O)C(=O)N[C@@H](CC(N)=O)C(=O)N[C@@H](Cc1c[nH]cn1)C(=O)N[C@@H](Cc1ccc(O)cc1)C(=O)N[C@@H](C)C(=O)N[C@@H](CCC(=O)O)C(=O)N[C@@H](CC(=O)O)C(=O)N[C@@H](CCC(=O)O)C(=O)N[C@@H](CCCNC(=N)N)C(=O)N[C@@H](Cc1ccc(O)cc1)C(=O)N[C@@H](CCCCN)C(N)=O` [ESBP3] (Ac-ESLSLSLSLSLSLEGQYKTYIDKNNHYAEDERYK-NH2), the viability at 6 h, 10 µM in the data set “Cytocompatibility (CCK8)” (replicate 1, CCK8, 6 h) is 91.9%; in “Cytocompatibility (CCK8)” (replicate 2, CCK8, 6 h) it was 85.4%. Besides, the viability at 6 h, 100 µM in the data set “Cytocompatibility (CCK8)” (replicate 1, CCK8, 6 h) came to 87.2%; in the data set “Cytocompatibility (CCK8)” (replicate 2, CCK8, 6 h), 97.6%; in the data set “Cytocompatibility (CCK8)” (replicate 3, CCK8, 6 h) it was 85.4%. The viability at 6 h, 1000 µM was determined as 106% in “Cytocompatibility (CCK8)” (replicate 1, CCK8, 6 h exposure, absorbance 450 nm); 125% in the data set “Cytocompatibility (CCK8)” (replicate 2, CCK8, 6 h); 119% in “Cytocompatibility (CCK8)” (replicate 3, CCK8, 6 h). For the same compound, the “cytocompatibility, in words” value with A549 cells is reported as “excellent cytocompatibility”. In addition, the “repeat IV dosing safety, in words” value in data set [1] (daily IV for 10 days, ~1 w% (10 mg/mL), 225-250 g adult rats) is listed as “no adverse effect”. For the same compound, the “significant changes in body weight (ESBP3 also animal behavior, adverse events, gross organ morphology) compared to carrier” value in data set [1] (daily repeated IV dosing for 10 days, rats) is given as “no”. Besides, the “peptide in plasma after subcutaneous bolus” value in data set [2] (200 µL, 10 mg/mL, once, daily blood draws for 10 days) is listed as “no detectable ESBP3”. For the same compound, the “subcutaneous bolus tolerability, in words” value in data set [2] (200 µL, 10 mg/mL, once, rats, daily blood draws for 10 days) was “no significant body weight changes or adverse organ morphology; also recorded: no weight loss or adverse event”. For the same compound, in data set [2] (7 days), the “histology of Sub-Q implanted boluses (H&E, Masson's Trichrome)” value is “infiltration of boluses with neutrophils/ macrophages”. The “intranasal repeat dosing safety, in words” value in data set [3] is listed as “no significant body weight changes or adverse organ morphology; also recorded: nasal turbinate showing no adverse effects; also recorded: no adverse toxicity”. At SARS-CoV-2 Spike-RBD, the “ITC binding to Spike RBD, in words” value was “ESBP3-Spike-binding events”. Further, at SARS-CoV-2 Spike-RBD, the “ITC self-assembly, in words” value is “supported spontaneous self-assembly”. Moreover, in data set [4], the “ultracentrifuge pellet (assembly into nanofibers)” value is recorded as “no pellet”.
